From ChEMBL document CHEMBL1201862, “PubChem BioAssay data set” (2004)
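1) Cells in 96-well plates. 2) Compound, 48 h, 5 concentrations. 3) Linear interpolation between surrounding doses. 4) Unreached endpoint = highest concentration. Here, GI50 denotes the concentration required for 50% inhibition of growth.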 Calls of active or inactive are those of the source. No stated cut-off is given here; in the data, active = GI50 up to about 1.1 µM and inactive = higher.

Tests used:
Experiment in all cases: NCI anticancer screen, dose series, 48 h
[1] = system: DU-145
[2] = system: SF-268
[3] = system: PC-3
[4] = system: OVCAR-5
[5] = system: A498
[6] = system: UACC-257
[7] = system: CCRF-CEM
[8] = system: HOP-62
[9] = system: U-251
[10] = system: IGROV-1
[11] = system: 786-0
[12] = system: M14
[13] = system: UO-31
[14] = system: ACHN
[15] = system: EKVX
[16] = system: RPMI-8226
[17] = system: MOLT-4
[18] = system: NCI-H460
[19] = system: SK-MEL-2

Measured: GI50

O=C(CCl)N1CCN(c2ccccc2)CC1
inactive: [1] > 100 µM | [2] 14.5 µM | [3] 40.9 µM | [4] 20.6 µM | [5] 25.9 µM | [6] 23.2 µM | [7] 26.7 µM | [8] 19.7 µM | [9] 19.5 µM | [10] 24.1 µM | [11] 15.9 µM | [12] 17.7 µM | [13] 17.9 µM | [14] 24.4 µM | [15] 24.5 µM | [16] 24.9 µM | [17] 27.2 µM | [18] 18.8 µM

COC1CC(OS(=O)(=O)c2ccc(C)cc2)C(OC(=O)c2ccccc2)C(C)O1 (centres undefined)
inactive: [2] > 100 µM | [19] > 10 µM | [4] > 10 µM | [5] > 10 µM | [6] > 10 µM | [7] > 10 µM | [8] > 10 µM | [9] > 10 µM | [10] > 10 µM | [11] > 10 µM | [12] > 10 µM | [13] > 10 µM | [14] > 10 µM | [15] > 10 µM | [16] > 100 µM | [17] > 10 µM | [18] > 10 µM

CCCCCCCCCCCC(=O)OCCOCCOCCOCCOCCOC(=O)CCCCCCCCCCC
inactive: [2] > 100 µM | [19] > 100 µM | [4] > 100 µM | [5] > 100 µM | [6] > 100 µM | [7] > 100 µM | [8] > 100 µM | [9] > 100 µM | [10] > 100 µM | [11] > 100 µM | [12] > 100 µM | [13] > 100 µM | [14] > 100 µM | [15] > 100 µM | [16] > 100 µM | [17] > 100 µM | [18] > 100 µM

O=C(Nc1cc(C(F)(F)F)ccc1Cl)C(=O)C(C(=O)c1ccc2ccccc2c1)C1OC(=O)c2ccccc21 (centres undefined)
inactive: [2] 4.13 µM | [19] 12.6 µM | [4] 8.95 µM | [5] 6.55 µM | [6] 10 µM | [7] 4.11 µM | [8] 6.01 µM | [9] 2 µM | [10] 23.3 µM | [11] 5.26 µM | [12] 12.2 µM | [13] 12.4 µM | [14] 17 µM | [15] 13.5 µM | [16] 4.25 µM | [17] 2.09 µM | [18] 3.79 µM

CC#Cc1c(C#CC)c(OC)c2c(c1OC)C(=O)c1ccccc1C2=O
inactive: [2] 25.7 µM | [19] 38.5 µM | [4] > 100 µM | [5] 33.1 µM | [6] > 100 µM | [7] > 100 µM | [8] 17.3 µM | [9] 21.4 µM | [10] 73.6 µM | [11] 23.3 µM | [12] 33.6 µM | [13] 26 µM | [14] 14.3 µM | [15] 45.7 µM | [16] 39.2 µM | [17] > 100 µM | [18] > 100 µM

C/C(CN1C(=O)c2ccccc2C1=O)=N\NS(=O)(=O)c1ccc(F)cc1
inactive: [2] > 100 µM | [19] > 100 µM | [4] > 100 µM | [5] > 100 µM | [6] > 100 µM | [7] > 100 µM | [8] > 100 µM | [9] > 100 µM | [10] > 100 µM | [11] > 100 µM | [12] > 100 µM | [13] > 100 µM | [14] > 100 µM | [15] > 100 µM | [16] > 100 µM | [17] > 100 µM | [18] > 100 µM

COC(=O)C(C(=O)C(=O)Nc1c(Cl)cc([N+](=O)[O-])cc1Cl)c1nc2cc(C)c(C)cc2nc1O (centres undefined)
inactive: [2] > 100 µM | [19] > 100 µM | [4] > 100 µM | [5] 44.9 µM | [6] > 100 µM | [7] > 100 µM | [8] > 100 µM | [9] > 100 µM | [10] > 100 µM | [11] > 100 µM | [12] > 100 µM | [13] > 100 µM | [14] > 100 µM | [15] 38.9 µM | [16] > 100 µM | [17] > 100 µM | [18] > 100 µM

CCc1cccc(CC)c1NC(=O)CC1SC(N)=NC1=O (centres undefined)
inactive: [2] > 100 µM | [19] > 100 µM | [4] > 100 µM | [5] > 100 µM | [6] > 100 µM | [7] > 100 µM | [8] > 100 µM | [9] > 100 µM | [10] > 100 µM | [11] > 100 µM | [12] > 100 µM | [13] > 100 µM | [14] > 100 µM | [15] > 100 µM | [16] > 100 µM | [17] > 100 µM | [18] > 100 µM

O=C1CSCc2sccc21
inactive: [1] > 100 µM | [2] > 100 µM | [19] > 100 µM | [3] > 100 µM | [4] > 100 µM | [5] > 100 µM | [6] > 100 µM | [7] > 100 µM | [8] > 100 µM | [9] > 100 µM | [10] > 100 µM | [11] > 100 µM | [12] > 100 µM | [13] > 100 µM | [14] > 100 µM | [15] > 100 µM | [17] > 100 µM | [18] > 100 µM

Cc1cccc(C)c1NC(=O)CCCC(=O)C1/C(=N/NC(=O)CC#N)CCC/C1=N\NC(=O)CC#N (centres undefined)
inactive: [2] > 100 µM | [19] > 100 µM | [4] > 100 µM | [5] > 100 µM | [6] > 100 µM | [7] > 100 µM | [8] > 100 µM | [9] > 100 µM | [10] > 100 µM | [11] > 100 µM | [12] > 100 µM | [13] > 100 µM | [14] > 100 µM | [15] > 100 µM | [16] > 100 µM | [17] > 100 µM | [18] > 100 µM

C/C=C/C=N/N(C(=O)c1cc([N+](=O)[O-])cc([N+](=O)[O-])c1)C1=NN=C(c2ccccc2)C(c2ccccc2)N1 (centres undefined)
inactive: [2] 47.2 µM | [19] 74 µM | [4] > 100 µM | [5] > 100 µM | [6] 26.5 µM | [7] 36.7 µM | [8] > 100 µM | [9] > 100 µM | [10] > 100 µM | [11] 80.4 µM | [12] 33.3 µM | [13] 43.9 µM | [14] 97.5 µM | [15] > 100 µM | [16] 24.4 µM | [17] 25.7 µM | [18] 91.2 µM
